Test results: patent US20100298376A1, “USE OF NOVEL NEUROPROTECTIVE 3-SUBSTITUTED INDOLONE COMPOSITIONS” (BOARD OF REGENTS, THE UNIVERSITY OF TEXAS SYSTEM, priority 2009, published 2010)
Where two headings read alike, the source gives them in different places.

System: cerebellar granule neurons
Conditions: for % neuronal survival Mean ± SD: 24 hours, percent of HK control
Experimental: These compounds were analyzed for their neuroprotective activity in vitro. Granule neuron cultures were obtained from dissociated cerebella of 7-8 day old Wistar rats as known to one of ordinary skill in the art. Cells were plated in Basal Eagle's Medium with Earles salts (BME) supplemented with 10% fetal calf serum (FCS), 25 mM KCl, 2 mM glutamine (Invitrogen), and 100 μg/ml gentamycin on dishes (Nunc) coated with poly-L-lysine in 24-well dishes at a density 1×10^6 cells/well. Cytosine arabinofuranoside (10 μM) was added to the culture medium 18-22 hours after plating to prevent replication of non-neuronal cells that yields highly pure culture of granule neurons. The neuronal cultures were maintained for 7-8 days prior to treatments.
This experimental model of neuronal apoptosis has been used widely used to understand the molecular mechanisms underlying neurodegeneration and to identify biological and chemical agents with neuroprotective efficacy. For this, the cells were rinsed once and then maintained in low K^+ medium (serum-free BME medium, 5 mM KCl; referred to as LK), or in the case of control cultures, in high K^+ medium (serum-free BME medium, supplemented with 20 mM KCl; referred to as HK). Each compound was tested at three different concentrations of 1 μM, 5 μM, and 25 μM. The 25 μM concentration was included to evaluate neurotoxicity. For treatments, the chemical compounds (dissolved in dimethylsulfoxide) were added directly to LK medium at the time of the switch from HK at concentrations of 1 μM, 5 μM, or 25 μM. Viability was assessed 24 hours later. Each compound was tested in duplicate (at each of the concentrations) and the experiment repeated at least 3 times. Although all compounds were solubilized in dimethylsulfoxide (DMSO), the amount of DMSO in the cultures never exceeded 0.1% (v/v).
The viability status of neuronal cultures treated with HK, LK, or LK medium supplemented with various compounds was evaluated by phase contrast microscopy and quantified by staining cell nuclei with 4′,6′-diamidino2-phenylindole hydrochloride (DAPI). Briefly, the cells were fixed in 4% paraformaldehyde for 20 minutes at 4′C. After washing in phosphate buffered saline, DAPI (1 μg/ml in phosphate buffered saline) was added for 15 min at room-temperature and viewed under ultraviolet light (260 nm). Cells with condensed or fragmented nuclei were scored as dead. […] Statistical analysis was performed using an unpaired, two-tailed Student's t test, compared to mean neuronal survival of control cultures receiving LK treatment and the quantitative data are presented in Tables 1 and 2 for each compound.

[1] = LK medium, concentration not specified

O=C1Nc2ccccc2/C1=C\c1c(Cl)cccc1Cl [Compound 5, (E)-3-(2′,6′-Dichlorobezylidene)indolin-2-one] was tested, and the “neurotoxicity (in words)” value was “toxic”, the “neuroprotective activity (in words)” value [1] was “ineffective” and the “% neuronal survival Mean ± SD” value (Table 1, 1 μM in LK medium) was 54.6 ± 10.27%. For the same compound, the “% neuronal survival Mean ± SD” value (Table 1, 5 μM in LK medium) was 52.9 ± 3.94% and the “% neuronal survival Mean ± SD” value (Table 1, 25 μM in LK medium) was 24.5 ± 12.38%.

For O=C1Nc2ccccc2C1=CC=Cc1ccccc1 [Compound 4, 3-(3′-Phenylallylidene)indolin-2-one], the “neurotoxicity (in words)” value was “non-toxic”, the “neuroprotective activity (in words)” value [1] was “moderately protective” and the “% neuronal survival Mean ± SD” value (Table 1, 1 μM in LK medium) was 86.0 ± 2.03 %. For the same compound, the “% neuronal survival Mean ± SD” value (Table 1, 5 μM in LK medium) was 83.6 ± 18.88%, the “% neuronal survival Mean ± SD” value (Table 1, 25 μM in LK medium) was 81.1 ± 6.22 % and the “neuroprotective activity (in words)” value (at all three concentrations) was “moderately efficacious”.

In the case of O=C1Nc2ccc([N+](=O)[O-])cc2/C1=C/c1ccc[nH]1 [Compound 39], the “% neuronal survival Mean ± SD” value (Table 2, 1 μM in LK medium) is reported as 84.4 ± 3.41 %, the “% neuronal survival Mean ± SD” value (Table 2, 5 μM in LK medium) is reported as 90.1 ± 6.55 % and the “% neuronal survival Mean ± SD” value (Table 2, 25 μM in LK medium) is reported as 87.9 ± 1.40 %.

In the case of O=C1Nc2ccc(Cl)cc2/C1=C/c1cc(Br)cc(Br)c1 [Compound 8, (Z)-3-(3′,5′-Dibromobenzylidene)-5-chloroindolin-2-one], the “neuroprotective activity (in words)” value [1] is reported as “substantially less effective”, the “% neuronal survival Mean ± SD” value (Table 1, 1 μM in LK medium) is reported as 77.7 ± 17.51% and the “% neuronal survival Mean ± SD” value (Table 1, 5 μM in LK medium) is reported as 68.5 ± 11.86%. The “% neuronal survival Mean ± SD” value (Table 1, 25 μM in LK medium) was 64.4 ± 9.65%.

With COc1cc(/C=C2\C(=O)Nc3ccc(F)cc32)cc(OC)c1OC [Compound 32, (Z)-5-Fluoro-3-(3′, 4′,5′-trimethoxybenzylidene)indolin-2-one] the “neuroprotective activity (in words)” value [1] was “not effective”, the “% neuronal survival Mean ± SD” value (Table 1, 1 μM in LK medium) was 59.2 ± 1.77% and the “% neuronal survival Mean ± SD” value (Table 1, 5 μM in LK medium) was 51.9 ± 7.14%. For the same compound, the “% neuronal survival Mean ± SD” value (Table 1, 25 μM in LK medium) was 31.9 ± 1.77%.

COc1cc(/C=C2\C(=O)Nc3ccc([N+](=O)[O-])cc32)cc(OC)c1OC [Compound 23, (Z)-3-(3′, 4′,5′-Trimethoxybenzylidene)-5-nitroindolin-2-one] was tested, and the “% neuronal survival Mean ± SD” value (Table 1, 1 μM in LK medium) was 76.6 ± 15.98%, the “% neuronal survival Mean ± SD” value (Table 1, 5 μM in LK medium) was 61.9 ± 5.87% and the “% neuronal survival Mean ± SD” value (Table 1, 25 μM in LK medium) was 69.0 ± 11.26%.

For “(Z)-5-Bromo-3-(thien-2′-ylmethylene)indolin-2-one [Compound 43]”, the “% neuronal survival Mean ± SD” value (Table 2, 1 μM in LK medium) was 56.8 ± 5.62%, the “% neuronal survival Mean ± SD” value (Table 2, 5 μM in LK medium) was 58.3 ± 9.82% and the “% neuronal survival Mean ± SD” value (Table 2, 25 μM in LK medium) was 66.4 ± 4.56%.

Cc1ccc(/C=C2\C(=O)Nc3ccc([N+](=O)[O-])cc32)cc1 [Compound 28, (Z)-3-(4′-Methylbenzylidene)-5-nitroindolin-2-one] was tested, and the “% neuronal survival Mean ± SD” value (Table 1, 1 μM in LK medium) was 54.6 ± 7.48%, the “% neuronal survival Mean ± SD” value (Table 1, 5 μM in LK medium) was 60.0 ± 1.87% and the “% neuronal survival Mean ± SD” value (Table 1, 25 μM in LK medium) was 54.3 ± 0.49%.

With CC(=O)c1ccc2c(c1)/C(=C/c1ccc[nH]1)C(=O)N2 [Compound 38] the “neuroprotective activity (in words)” value [1] was “moderate protective activity”, the “% neuronal survival Mean ± SD” value (Table 2, 1 μM in LK medium) was 69.5 ± 12.61% and the “% neuronal survival Mean ± SD” value (Table 2, 5 μM in LK medium) was 87.3 ± 22.50%. For the same compound, the “% neuronal survival Mean ± SD” value (Table 2, 25 μM in LK medium) was 87.1 ± 24.50%.

For CN(C)c1ccc(/C=C2\C(=O)Nc3ccc([N+](=O)[O-])cc32)cc1 [Compound 29, (Z)-3-(4′-(Dimethylamino)benzylidene)-5-nitroindolin-2-one], the “% neuronal survival Mean ± SD” value (Table 1, 1 μM in LK medium) was 70.4 ± 9.37%, the “% neuronal survival Mean ± SD” value (Table 1, 5 μM in LK medium) was 67.6 ± 10.31% and the “% neuronal survival Mean ± SD” value (Table 1, 25 μM in LK medium) was 66.9 ± 9.86%.

COc1cc(/C=C2\C(=O)Nc3ccc(Cl)cc32)cc(OC)c1OC [Compound 10, (Z)-5-Chloro-3-(3′, 4′,5′-trimethoxybenzylidene)indolin-2-one] was tested, and the “% neuronal survival Mean ± SD” value (Table 1, 1 μM in LK medium) was 81.1 ± 9.81 %, the “% neuronal survival Mean ± SD” value (Table 1, 5 μM in LK medium) was 71.0 ± 7.26 % and the “% neuronal survival Mean ± SD” value (Table 1, 25 μM in LK medium) was 57.1 ± 10.13%.

In the case of O=C1Nc2ccc(F)cc2/C1=C\c1cc(Br)c(O)c(Br)c1 [Compound 30, (E)-3-(3′,5′-Dibromo-4′-hydroxybenzylidene)-5-fluoro-indolin-2-one], the “neurotoxicity (in words)” value is reported as “toxic”, the “neuroprotective activity (in words)” value [1] is reported as “not effective” and the “% neuronal survival Mean ± SD” value (Table 1, 1 μM in LK medium) is reported as 49.3 ± 10.34%. For the same compound, the “% neuronal survival Mean ± SD” value (Table 1, 5 μM in LK medium) was 69.6 ± 8.96% and the “% neuronal survival Mean ± SD” value (Table 1, 25 μM in LK medium) was 18.1 ± 11.00 %.

In the case of O=C1Nc2ccccc2/C1=C/c1ccccc1[N+](=O)[O-] [Compound 6], the “% neuronal survival Mean ± SD” value (Table 1, 1 μM in LK medium) is reported as 75.8 ± 3.20 %, the “% neuronal survival Mean ± SD” value (Table 1, 5 μM in LK medium) is reported as 76.6 ± 7.14% and the “% neuronal survival Mean ± SD” value (Table 1, 25 μM in LK medium) is reported as 81.5 ± 13.72%.

COc1ccc(/C=C2/C(=O)Nc3ccc(Br)cc32)cc1 [Compound 19, (E)-5-Bromo-3-(4′-methoxybenzylidene)indolin-2-one] was tested, and the “neuroprotective activity (in words)” value [1] was “not effective”, the “% neuronal survival Mean ± SD” value (Table 1, 1 μM in LK medium) was 57.1 ± 4.51% and the “% neuronal survival Mean ± SD” value (Table 1, 5 μM in LK medium) was 59.5 ± 9.10%. The “% neuronal survival Mean ± SD” value (Table 1, 25 μM in LK medium) was 60.5 ± 9.56%.

With O=C1Nc2ccccc2/C1=C\c1ccco1 [Compound 45, (E)-3-(Furan-2′-ylmethylene)indoline-2-one] the “neuroprotective activity (in words)” value [1] was “excellent activity”, the “% neuronal survival Mean ± SD” value (Table 2, 1 μM in LK medium) was 70.4 ± 8.35% and the “% neuronal survival Mean ± SD” value (Table 2, 5 μM in LK medium) was 82.8 ± 5.22 %. The “% neuronal survival Mean ± SD” value (Table 2, 25 μM in LK medium) was 90.2 ± 3.91 %.

With O=C1Nc2ccccc2/C1=C/c1cccs1 [Compound 41, (Z)-3-(Thien-2′-ylmethylene)indolin-2-one] the “% neuronal survival Mean ± SD” value (Table 2, 1 μM in LK medium) was 68.3 ± 13.16%, the “% neuronal survival Mean ± SD” value (Table 2, 5 μM in LK medium) was 77.1 ± 13.16% and the “% neuronal survival Mean ± SD” value (Table 2, 25 μM in LK medium) was 86.2 ± 4.03 %. For the same compound, the “neuroprotective activity (in words)” value (at 25 μM / high doses) was “moderately active”.

For O=C1Nc2ccc([N+](=O)[O-])cc2/C1=C\c1c(Cl)cccc1Cl [Compound 24, (E)-3-(2′,6′-Dichlorobenzylidene)-5-nitroindolin-2-one], the “% neuronal survival Mean ± SD” value (Table 1, 1 μM in LK medium) was 76.4 ± 9.84 %, the “% neuronal survival Mean ± SD” value (Table 1, 5 μM in LK medium) was 69.9 ± 11.25% and the “% neuronal survival Mean ± SD” value (Table 1, 25 μM in LK medium) was 70.7 ± 8.50%.

For O=C1Nc2ccc(Cl)cc2/C1=C\c1c(Cl)cccc1Cl [Compound 11, (E)-5-Chloro-3-(2′,6′-dichlorobenzylidene)indolin-2-one], the “% neuronal survival Mean ± SD” value (Table 1, 1 μM in LK medium) was 56.4 ± 14.41%, the “% neuronal survival Mean ± SD” value (Table 1, 5 μM in LK medium) was 63.8 ± 3.46% and the “% neuronal survival Mean ± SD” value (Table 1, 25 μM in LK medium) was 45.7 ± 24.05%.

O=C1Nc2ccc([N+](=O)[O-])cc2/C1=C/c1ccccc1 [Compound 25, (Z)-3-Benzylidene-5-nitroindolin-2-one] was tested, and the “% neuronal survival Mean ± SD” value (Table 1, 1 μM in LK medium) was 80.1 ± 18.01%, the “% neuronal survival Mean ± SD” value (Table 1, 5 μM in LK medium) was 78.4 ± 17.54% and the “% neuronal survival Mean ± SD” value (Table 1, 25 μM in LK medium) was 54.3 ± 3.63%. The “neuroprotective activity (in words)” value (at all three concentrations) was “moderately efficacious”.

For COc1cc(/C=C2\C(=O)Nc3ccccc32)cc(OC)c1OC [Compound 3, (Z)-3-(3′, 4′,5′-Trimethoxybenzylidene)indolin-2-one], the “neuroprotective activity (in words)” value [1] was “reduced activity”, the “% neuronal survival Mean ± SD” value (Table 1, 1 μM in LK medium) was 50.8 ± 7.50% and the “% neuronal survival Mean ± SD” value (Table 1, 5 μM in LK medium) was 59.9 ± 7.98%. The “% neuronal survival Mean ± SD” value (Table 1, 25 μM in LK medium) was 61.3 ± 11.35% and the “neuroprotective activity (in words)” value (at all three concentrations) was “not protective”.
